For assay [1], the target named is T1, VHL (VBC complex) (Homo sapiens, UniProt P40337).
T1 construct: equimolar complex of pVHL54-213, eloB1-104 and; made in house; host or cells: E. coli
Description: 19F CPMG NMR transverse relaxation rate (R2) and R2 contrast (C2) of spy molecule with and without protein. In kind it is binding.

Assay [2] addresses T2, VHL (VBC complex: pVHL54-213, eloB1-104, eloC17-112) (Homo sapiens, UniProt P40337).
T2 construct: equimolar complex of pVHL54-213, eloB1-104 and; made in house; host or cells: E. coli
Briefly: Surface plasmon resonance (SPR) steady-state binding to immobilised biotinylated AviVBC. The method, then: The KD of each compound to VHL was determined by surface plasmon resonance (SPR) experiments.
3. Protein expression, purification and biotinylation
The VHL E3 ligase is a multi-protein complex composed of five proteins: VHL protein (pVHL), elongin B (eloB), elongin C (eloC), Cullin-2 (Cul2) and Ring-box protein 1 (Rbx1).[3] Since the compounds developed in this work bind solely to the VHL protein, the VBC complex (equimolar complex of pVHL54-213, eloB1-104 and eloC17-112) was used in all experiments, as it can be readily expressed in E. coli with high yields,[4] while the full E3 ligase would require baculovirus-insect cells expression system.[5] The expression and purification of VBC was performed as described previously by our group[2] and employed directly in all NMR experiments.
For the surface plasmon resonance (SPR) experiments, a VBC complex containing an AviTagTM in the N-terminus of eloB (AviVBC) was purified using the same procedure described for VBC. The modified eloB/eloC expression plasmid was previously developed in-house by Dr. Michael Roy and kindly shared. The AviVBC complex was site-specifically biotinylated in the AviTag using the GST-BirA method previously described by […]
4. Surface plasmon resonance experiments
The SPR experiments were performed with a Biacore T200 instrument (GE Healthcare). All measurements were performed at 20 °C with buffer containing 10 mM HEPES, pH 7.5, 150 mM NaCl, 1 mM TCEP, 0.005% (v/v) Tween® 20 and 2% (v/v) dimethyl sulfoxide (DMSO). Biotinylated AviVBC (~0.5 μM) was immobilised at 22 °C onto a Series S sensor chip SA (GE Heathcare) to levels of approximately 3500-4000 response units […]
Solutions of each spy molecule were prepared in buffer at concentrations based on previous structure-activity relationship studies of VHL ligands (K D expected in the nanomolar range for structures like spy molecules 16 and 22, or in the milimolar range for spy molecules similar to 1 and 9). From this first screen, the binding affinities were roughly estimated using the Biacore T200 evaluation software (GE Healthcare), then measurements were repeated using concentrations above and below the KD obtained in the first round to generate better curves for fitting the data accurately. Contact and dissociation times varied across the different compounds tested, but in […]
dissociated from the surface in less than sixty seconds.
Data analysis was performed using the steady state responses of the double-referenced sensorgrams (raw data subtracted from blank and reference surface injections) obtained for each concentration tested. These responses were plotted against the respective concentrations and the data fitted to a 1: 1 binding model u sing the Biacore T200 evaluation software and the following equation: […]
Where Req is the steady-state response at a given concentration C. Deviations in Req were corrected by adding an ‘offset’ term to the equation. KD is the dissociation constant to be determined and RMAX is the maximum response expected for a given compound according to the equation below:
Where n is the stoichiometry of the interaction ( in this case, n = 1) and RProtein is the immobilization level of protein. MWCompound and MWProtein are the molecular weights of compound and protein, respectively. Sensorgrams and fitting parameters for all spy molecules can be found in section 7.

The target in assay [3] is T1, VHL (VBC complex). Description: 19F CPMG NMR transverse relaxation rate (R2) and R2 contrast (C2) of spy molecule with and without protein. In kind it is binding. An excerpt: Due to the large CSA of fluorine and the significant differences in the fluorine isotropic chemical shift (δF) between the free and bound states, the transverse relaxation rate (R2) is a well-established sensitive parameter to detect ligand binding.[4] Therefore, fluorine NMR experiments including a Carr–Purcell–Meiboom–Gill (CPMG) spin-echo filter[10] before acquisition were employed to monitor ligand binding to VHL by measuring peak intensity, as changes in other NMR parameters, such as chemical shift and peak width, were not as significant. The R2 values of the CF3 peak of each compound in the absence and in the presence of protein were determined by performing multiple ^19F CPMG experiments varying the CPMG filter (Fig. 2a). To quantify the shift in R2 upon binding, the R2 contrast (C2)[11] was determined. Ideally, a good spy molecule should have a large increase in R2 (fast relaxation) when protein is present, resulting in a large assay window for the competition experiments (Fig. 2b).
5. Measurement of the transverse relaxation rates by 19F CPMG NMR
All the NMR experiments were performed in a 500 MHz Bruker AVANCE N MR spectrometer equipped with a CPQCI -F cryoprobe. To measure the transverse relaxation rates (R 2), a solution of each spy molecule at 100 μM was prepared in 50 mM potassium phosphate monobasic (KH2PO4), pH 7.5, 100 mM NaCl, 1 mM TCEP, 2% (v/v) DMSO, 20% D2O and 10 µM trifluoroacetic acid (TFA). For each solution, 19F CPMG experiments […]
Due to the fast relaxation of molecules 21 and 22, these experiments were repeated with shorter CPMG filters (50, 100, 150, 200, 300, 400, 700 and 1000 ms). The fluorine peaks were integrated and plotted against the resp ective CPMG filters. The R 2 relaxation rates were obtained from fitting the data as a n exponential decay (GraphPad Prism 6) according to the equation below: [7]
Where I(t) is the 19F signal intensity or integral, t is the total CPMG filter in seconds, I(0) is the signal intensity when t = 0. To obtain the R2 upon addition of prot ein, all the experiments above were repeated in presence of VBC at 1 µM. Experiments were performed as triplicates and the R 2 contrasts (C2) were obtained according to the equation below: [8]
Where R2Free is the R2 obtained for the spy molecule free in solution and R2Observed is the R2 obtained with the spy molecule in presence of VBC. The raw data, fitting, R2 and C2 values for each spy molecule can be found in section 8.1. For the R2 measurements using molecule 19 at varied concentrations of spy molecule and protein, see section 8.2 . For the R2 measurements using spy molecules 6 and 11 (used to generate figures S 2, S3 and S4) see
This is another data set of the same source.

The values that follow come from article PMC6369734, “Spy vs. spy: selecting the best reporter for ^19F NMR competition experiments” (Chemical Communications (Cambridge, England), 2019).

SMILES strings stand for the structures. Read-outs that look alike come from different tables or passages of the source.

T1 sequence (P40337 54-213): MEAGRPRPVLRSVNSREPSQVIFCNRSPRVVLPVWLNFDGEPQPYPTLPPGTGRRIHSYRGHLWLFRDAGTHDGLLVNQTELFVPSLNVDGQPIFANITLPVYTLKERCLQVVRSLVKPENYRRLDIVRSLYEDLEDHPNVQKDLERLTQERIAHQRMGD
T1 sequence (Q15370 1-104 partner limits assumed): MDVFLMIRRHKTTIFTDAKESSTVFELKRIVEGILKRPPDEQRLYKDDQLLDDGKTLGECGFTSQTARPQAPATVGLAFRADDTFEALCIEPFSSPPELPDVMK
T1 sequence (Q15369 17-112 partner limits assumed): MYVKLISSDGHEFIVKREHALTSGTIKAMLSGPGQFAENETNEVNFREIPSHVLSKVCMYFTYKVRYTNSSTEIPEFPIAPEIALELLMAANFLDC
T2 sequence (P40337 54-213): as the sequence (P40337 54-213) above
T2 sequence (Q15370 1-104 partner limits assumed): as the sequence (Q15370 1-104 partner limits assumed) above
T2 sequence (Q15369 17-112 partner limits assumed): as the sequence (Q15369 17-112 partner limits assumed) above

Take `CC(C)(C)CC(=O)N1C[C@H](O)C[C@H]1C(=O)NCc1ccc(Br)cc1C(F)(F)F` [Compound 11]: the R2 turned out to be 1.534 ± 0.071 s⁻¹ at VHL (VBC complex) [1] (section 8.3: spy molecules at 50 μM in absence of VBC (sub-head prints Spy molecule 100 μM)); 3.122 ± 0.145 s⁻¹ at VHL (VBC complex) [1] (section 8.3: spy molecules at 50 μM in presence of VBC 1 μM (sub-head prints 100 μM)); 2.740 ± 0.096 s⁻¹ on VHL (VBC complex) [3] (Spy molecule 100 μM + VBC 1 μM); 1.427 ± 0.033 s⁻¹ on VHL (VBC complex) [3] (Spy molecule 100 μM, no protein). The “R2 contrast – C2” value worked out at 50.9 ± 5.7% at VHL (VBC complex) [1] (section 8.3: spy molecules at 50 μM, VBC 1 μM) and 47.9 ± 4.1% at VHL (VBC complex) [3] (Spy molecule 100 μM + VBC 1 μM, supplement 8.1). Besides, the Kd in assay [2] (SPR steady-state fit, supplement section 7, read-out: KD (Biacore T200 fit)) is 110 µM; in assay [2] (SPR, 20 °C, steady-state 1:1 fit, footnote b values fitted because RMAX was not reached experimentally, read-out: K D, SPR) it was 110 ± 9 µM.
